Species: Rattus norvegicus
Assay: DrugMatrix - Regimen: Daily Repeat
Assay type: toxicity, organism-based, Sprague-Dawley
Parameters: regimen Daily Repeat, gender Male, age 6-8 weeks
Conditions: in vivo, po, route oral GAVAGE, vehicle .5 % CMC; for ABSOLUTE BASOPHIL / ABSOLUTE EOSINOPHIL / ABSOLUTE LYMPHOCYTE / ABSOLUTE MONOCYTE / ABSOLUTE SEGMENTED NEUTROPHIL / BASOPHIL / EOSINOPHIL / ERYTHROCYTE COUNT / HEMATOCRIT / HEMOGLOBIN / LEUKOCYTE COUNT / LYMPHOCYTE / MEAN CORPUSCULAR HEMOGLOBIN / MEAN CORPUSCULAR HEMOGLOBIN CONCENTRATION / MEAN CORPUSCULAR VOLUME / MONOCYTE / NEUTROPHIL / NUCLEATED RED BLOOD CELLS / PLATELET COUNT: tissue Blood; for ALANINE AMINOTRANSFERASE / ALBUMIN / ALKALINE PHOSPHATASE / ASPARTATE AMINOTRANSFERASE / BLOOD UREA NITROGEN / CARBON DIOXIDE / CHLORIDE / CHOLESTEROL / CREATINE PHOSPHOKINASE / CREATININE / GLUCOSE / LACTATE DEHYDROGENASE / LIPASE / PHOSPHORUS / POTASSIUM / SODIUM / TOTAL BILIRUBIN / TOTAL PROTEIN / URIC ACID: tissue Plasma
[1] = 0 mg/kg, 72 h, dose level Control, time 3 day
[2] = 0 mg/kg, 120 h, dose level Control, time 5 day
[3] = 100 mg/kg, 72 h, dose level Low, time 3 day

In the case of Cl.NC[C@H]1CC[C@H](C(=O)Oc2ccc(CCC(=O)O)cc2)CC1 [CETRAXATE HYDROCHLORIDE], the “ABSOLUTE BASOPHIL” value [1] is reported as 0 CELLS/uL, the “ABSOLUTE EOSINOPHIL” value [1] is reported as 284.5 CELLS/uL and the “ABSOLUTE LYMPHOCYTE” value [1] is reported as 11670.5 CELLS/uL. For the same compound, the “ABSOLUTE MONOCYTE” value [1] was 420.83 CELLS/uL, the “ABSOLUTE SEGMENTED NEUTROPHIL” value [1] was 1024.17 CELLS/uL and the BASOPHIL [1] was 0%. For the same compound, the EOSINOPHIL [1] was 1.67%, the “ERYTHROCYTE COUNT” value [1] was 5.38 x10E6/uL and the HEMATOCRIT [1] was 34.05%. The HEMOGLOBIN [1] was 12.75 G/DL, the “LEUKOCYTE COUNT” value [1] was 13.4 x10E3/uL and the LYMPHOCYTE [1] was 88.33%. The “MEAN CORPUSCULAR HEMOGLOBIN” value [1] was 23.73 pg, the “MEAN CORPUSCULAR HEMOGLOBIN CONCENTRATION” value [1] was 37.43 G/DL and the “MEAN CORPUSCULAR VOLUME” value [1] was 63.4 fL. The MONOCYTE [1] was 2.83%, the NEUTROPHIL [1] was 7.17% and the “NUCLEATED RED BLOOD CELLS” value [1] was 0 /100WBC. The “PLATELET COUNT” value [1] was 1184.67 x10E3/uL, the “ALANINE AMINOTRANSFERASE” value [1] was 45.33 u/L and the ALBUMIN [1] was 4.3 G/DL. For the same compound, the “ALKALINE PHOSPHATASE” value [1] was 388.83 u/L, the “ASPARTATE AMINOTRANSFERASE” value [1] was 84.83 u/L and the “BLOOD UREA NITROGEN” value [1] was 15.5 mg/dL. The “CARBON DIOXIDE” value [1] was 27 mmol/L, the CHLORIDE [1] was 101.8 MEQ/L and the CHOLESTEROL [1] was 76.67 mg/dL. For the same compound, the “CREATINE PHOSPHOKINASE” value [1] was 301 u/L, the CREATININE [1] was 0.21 mg/dL and the GLUCOSE [1] was 168.83 mg/dL. For the same compound, the “LACTATE DEHYDROGENASE” value [1] was 294.83 u/L, the LIPASE [1] was 9.8 u/L and the PHOSPHORUS [1] was 13.25 mg/dL. The POTASSIUM [1] was 6.41 MEQ/L, the SODIUM [1] was 143.72 MEQ/L and the “TOTAL BILIRUBIN” value [1] was 0.22 mg/dL. The “TOTAL PROTEIN” value [1] was 5.98 G/DL, the “URIC ACID” value [1] was 1.5 mg/dL and the “ABSOLUTE BASOPHIL” value [2] was 0 CELLS/uL. For the same compound, the “ABSOLUTE EOSINOPHIL” value [2] was 190.67 CELLS/uL, the “ABSOLUTE LYMPHOCYTE” value [2] was 12549.5 CELLS/uL and the “ABSOLUTE MONOCYTE” value [2] was 276 CELLS/uL. For the same compound, the “ABSOLUTE SEGMENTED NEUTROPHIL” value [2] was 1067.17 CELLS/uL, the BASOPHIL [2] was 0% and the EOSINOPHIL [2] was 1.33%. For the same compound, the “ERYTHROCYTE COUNT” value [2] was 5.66 x10E6/uL, the HEMATOCRIT [2] was 35.92% and the HEMOGLOBIN [2] was 13.65 G/DL. For the same compound, the “LEUKOCYTE COUNT” value [2] was 14.08 x10E3/uL, the LYMPHOCYTE [2] was 89% and the “MEAN CORPUSCULAR HEMOGLOBIN” value [2] was 24.12 pg. The “MEAN CORPUSCULAR HEMOGLOBIN CONCENTRATION” value [2] was 38.03 G/DL, the “MEAN CORPUSCULAR VOLUME” value [2] was 63.47 fL and the MONOCYTE [2] was 2%. For the same compound, the NEUTROPHIL [2] was 7.67%, the “NUCLEATED RED BLOOD CELLS” value [2] was 0.17 /100WBC and the “PLATELET COUNT” value [2] was 1251.67 x10E3/uL. For the same compound, the “ALANINE AMINOTRANSFERASE” value [2] was 43.33 u/L, the ALBUMIN [2] was 4.22 G/DL and the “ALKALINE PHOSPHATASE” value [2] was 365.67 u/L. The “ASPARTATE AMINOTRANSFERASE” value [2] was 83.67 u/L, the “BLOOD UREA NITROGEN” value [2] was 18.17 mg/dL and the “CARBON DIOXIDE” value [2] was 28.67 mmol/L. For the same compound, the CHLORIDE [2] was 103.5 MEQ/L, the CHOLESTEROL [2] was 71.5 mg/dL and the “CREATINE PHOSPHOKINASE” value [2] was 284.5 u/L. The CREATININE [2] was 0.21 mg/dL, the GLUCOSE [2] was 161.67 mg/dL and the “LACTATE DEHYDROGENASE” value [2] was 259.67 u/L. For the same compound, the LIPASE [2] was 9.5 u/L, the PHOSPHORUS [2] was 12.45 mg/dL and the POTASSIUM [2] was 6.49 MEQ/L. The SODIUM [2] was 144.25 MEQ/L, the “TOTAL BILIRUBIN” value [2] was 0.2 mg/dL and the “TOTAL PROTEIN” value [2] was 6.1 G/DL. For the same compound, the “URIC ACID” value [2] was 1.73 mg/dL, the “ABSOLUTE BASOPHIL” value [3] was 0 CELLS/uL and the “ABSOLUTE EOSINOPHIL” value [3] was 0 CELLS/uL. For the same compound, the “ABSOLUTE LYMPHOCYTE” value [3] was 4748 CELLS/uL, the “ABSOLUTE MONOCYTE” value [3] was 119.67 CELLS/uL and the “ABSOLUTE SEGMENTED NEUTROPHIL” value [3] was 265.67 CELLS/uL. For the same compound, the BASOPHIL [3] was 0%, the EOSINOPHIL [3] was 0% and the “ERYTHROCYTE COUNT” value [3] was 5.52 x10E6/uL. The HEMATOCRIT [3] was 36.1%, the HEMOGLOBIN [3] was 13.33 G/DL and the “LEUKOCYTE COUNT” value [3] was 5.13 x10E3/uL. The LYMPHOCYTE [3] was 92.67%, the “MEAN CORPUSCULAR HEMOGLOBIN” value [3] was 24.2 pg and the “MEAN CORPUSCULAR HEMOGLOBIN CONCENTRATION” value [3] was 36.97 G/DL. For the same compound, the “MEAN CORPUSCULAR VOLUME” value [3] was 65.43 fL, the MONOCYTE [3] was 2.33% and the NEUTROPHIL [3] was 5%. For the same compound, the “NUCLEATED RED BLOOD CELLS” value [3] was 0 /100WBC, the “PLATELET COUNT” value [3] was 1331 x10E3/uL and the “ALANINE AMINOTRANSFERASE” value [3] was 33.33 u/L. For the same compound, the ALBUMIN [3] was 4.63 G/DL, the “ALKALINE PHOSPHATASE” value [3] was 363 u/L and the “ASPARTATE AMINOTRANSFERASE” value [3] was 79 u/L. The “BLOOD UREA NITROGEN” value [3] was 15 mg/dL, the “CARBON DIOXIDE” value [3] was 25 mmol/L and the CHLORIDE [3] was 104 MEQ/L. The CHOLESTEROL [3] was 87.33 mg/dL, the “CREATINE PHOSPHOKINASE” value [3] was 255.33 u/L and the CREATININE [3] was 0.17 mg/dL. The GLUCOSE [3] was 163.33 mg/dL, the “LACTATE DEHYDROGENASE” value [3] was 159.67 u/L and the LIPASE [3] was 10 u/L. For the same compound, the PHOSPHORUS [3] was 12.2 mg/dL, the POTASSIUM [3] was 6 MEQ/L and the SODIUM [3] was 147 MEQ/L. For the same compound, the “TOTAL BILIRUBIN” value [3] was 0.13 mg/dL, the “TOTAL PROTEIN” value [3] was 6.57 G/DL and the “URIC ACID” value [3] was 1.6 mg/dL.

Source: ChEMBL document CHEMBL3885881, “DrugMatrix”
